Reference: patent publication US6953812B2, “Glucagon antagonists/inverse agonists” (Novo Nordisk, Inc., priority 2000, dated 2005)

Columns and labels:
[1] = target: T1, human glucagon receptor (Homo sapiens, UniProt P47871); assay: Glucagon Binding Assay (II); settings: membranes of BHK cells transfected with human glucagon receptor, 125I-glucagon, SPA; read-out: Glu Bd Assay (II) IC50
T1 construct: expressed in transfected cells; host or cells: BHK (baby hamster kidney) cells, membrane preparation
Experimental: Glucagon Binding Assay (II)
BHK (baby hamster kidney cell line) cells are transfected with the human glucagon receptor and a membrane preparation of the cells is prepared.
All steps in the membrane preparation are kept on ice or performed at 4° C. BHK cells are harvested and centrifuged. The pellet is resuspended in homogenisation buffer (25 mM HEPES, pH=7.4, 2.5 mM CaCl2, 1.0 mM MgCl2, 250 mg/L bacitracin, 0.1 mM Pefabloc), homogenised 2×10 sec using Polytron 10-35 homogenizer (Kinematica) and added the same amount of homogenisation buffer as used for resuspension. After centrifugation (15 min at 2000×g) the supernatant is transferred to cold centrifuge tubes and centrifuged for 45 min at 40.000×g. The pellet is resuspended in homogenisation buffer, homogenised 2×10 sec (Polytron) and additional homogenisation buffer is added. The suspension is centrifuged for 45 min at 40.000×g and the pellet is resuspended in resuspension buffer (25 mM HEPES, pH=7.4, 2.5 mM CaCl2, 1.0 mM MgCl2) and homogenised 2×10 sec. (Polytron). […] Stabilisation buffer (25 mM HEPES, pH=7.4, 2.5 mM CaCl2, 1.0 mM MgCl2, 1% bovine serum albumin, 500 mg/L bacitracin, 2.5 M sucrose) is added and the membrane preparation is stored at −80° C.
(§1) The glucagon binding assay is carried out in opti plates (Polystyrene Microplates, Packard). 50 μL assay buffer (25 mM HEPES, pH=7.5, 2.5 mM CaCl2, 1.0 mM MgCl2, 0.003% Tween-20, 0.005% bacitracin, 0.05% sodium azide) and 5 μL glucagon or test compound (in DMSO) are added to each well. […] Finally 50 μL WGA beads containing 1 mg beads are transferred to the well. The opti plates are incubated for 4 hours on a shaker and then settled for 8-48 hours. The opti plates are counted in a Topcounter. Non-specific binding is determined with 500 nM of glucagon.

[2] = target: T2, human GIP receptor (Homo sapiens, UniProt P48546); assay: GIP Binding Assay; settings: membranes of BHK cells transfected with human GIP receptor, 125I-GIP, SPA; read-out: GIP Bd Assay IC50
T2 construct: expressed in transfected cells; host or cells: BHK (baby hamster kidney) cells, membrane preparation
T2 sequence (P48546 22-466): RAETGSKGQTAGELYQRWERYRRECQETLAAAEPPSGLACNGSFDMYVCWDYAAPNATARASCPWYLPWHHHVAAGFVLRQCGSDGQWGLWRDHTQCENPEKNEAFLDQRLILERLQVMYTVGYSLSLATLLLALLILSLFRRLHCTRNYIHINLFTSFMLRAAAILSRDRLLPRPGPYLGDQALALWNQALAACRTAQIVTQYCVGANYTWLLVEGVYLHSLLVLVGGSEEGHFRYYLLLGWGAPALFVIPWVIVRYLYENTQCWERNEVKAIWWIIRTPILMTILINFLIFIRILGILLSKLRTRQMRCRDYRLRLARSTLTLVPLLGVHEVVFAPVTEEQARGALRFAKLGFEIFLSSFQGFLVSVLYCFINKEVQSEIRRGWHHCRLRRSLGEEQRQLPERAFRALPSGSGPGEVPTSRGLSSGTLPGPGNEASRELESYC
Experimental: BHK (baby hamster kidney cell line) cells are transfected with the human GIP receptor and a membrane preparation of the cells is prepared.
All steps in the membrane preparation are kept on ice or performed at 4° C. BHK cells are harvested and centrifuged. The pellet is resuspended in homogenisation buffer (25 mM) HEPES, pH=7.4, 2.5 mM CaCl2, 1.0 mM MgCl2, 250 mg/L bacitracin, 0.1 mM Pefabloc), homogenised 2×10 sec using Polytron 10-35 homogenizer (Kinematica) and added the same amount of homogenisation buffer as used for resuspension. After centrifugation (15 min at 2000×g) the supernatant is transferred to cold centrifuge tubes and centrifuged for 45 min at 40.000×g. The pellet is resuspended in homogenisation buffer, homogenised 2×10 sec (Polytron) and additional homogenisation buffer is added. The suspension is centrifuged for 45 min at 40.000×g and the pellet is resuspended in resuspension buffer (25 mM HEPES, pH=7.4, 2.5 mM CaCl2, 1.0 mM MgCl2) and homogenised 2×10 sec. (Polytron). […] Stabilisation buffer (25 mM HEPES, pH=7.4, 2.5 mM CaCl2, 1.0 mM MgCl2, 1% bovine serum albumin, 500 mg/L bacitracin, 2.5 M sucrose) is added and the membrane preparation is stored at −80° C.
as §1, with “The GIP” for “The glucagon”, “μL GIP” for “μL glucagon”, “for 3.5” for “for 4”, “a Top-counter.” for “a Topcounter.”, “of GIP.” for “of glucagon.”

T1 sequence (P47871 26-477): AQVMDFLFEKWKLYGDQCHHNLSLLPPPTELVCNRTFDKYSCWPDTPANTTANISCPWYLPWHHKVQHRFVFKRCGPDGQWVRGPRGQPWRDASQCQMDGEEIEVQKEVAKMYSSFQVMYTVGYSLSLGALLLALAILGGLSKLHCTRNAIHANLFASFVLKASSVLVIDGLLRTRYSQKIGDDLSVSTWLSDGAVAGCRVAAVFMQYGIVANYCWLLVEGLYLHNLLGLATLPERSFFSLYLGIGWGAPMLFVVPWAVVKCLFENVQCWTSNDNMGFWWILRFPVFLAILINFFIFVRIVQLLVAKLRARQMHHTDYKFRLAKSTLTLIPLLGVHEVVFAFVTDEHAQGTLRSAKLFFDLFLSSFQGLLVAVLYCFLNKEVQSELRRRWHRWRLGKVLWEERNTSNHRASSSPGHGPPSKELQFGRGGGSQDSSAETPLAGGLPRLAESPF

Row | SMILES | IC50 [1] [nM] | IC50 [2] [nM]
1 | O=C(NC[C@@H](O)C(=O)O)c1ccc(CN(C(=O)Nc2cc(Cl)cc(Cl)c2)c2ccc(C3=CCCCC3)cc2)cc1 [Example 19, (R)-3-{4-[1-(4-Cyclohex-1-enylphenyl)-3-(3,5-dichlorophenyl)ureidomethyl]benzoylamino}-2-hydroxypropionic acid] | 15 | 916
2 | O=C(NC[C@@H](O)C(=O)O)c1ccc(CN(C(=O)Nc2cccc(Cl)c2)c2ccc(C3=CCCCC3)cc2)cc1 [Example 20, (R)-3-{4-[3-(3-Chlorophenyl)-1-(4-cyclohex-1-enylphenyl)ureidomethyl]benzoylamino}-2-hydroxypropionic acid] | 52 | 693
3 | O=C(NC[C@@H](O)C(=O)O)c1ccc(CN(C(=O)Nc2ccccc2)c2ccc(C3=CCCCC3)cc2)cc1 [Example 21, (R)-3-{4-[1-(4-Cyclohex-1-enylphenyl)-3-phenylureidomethyl]benzoylamino}-2-hydroxypropionic acid] | 293 | 1260
4 | O=C(NC[C@@H](O)C(=O)O)c1ccc(CN(C(=O)NCc2ccccc2)c2ccc(C3=CCCCC3)cc2)cc1 [Example 22, (R)-3-{4-[3-Benzyl-1-(4-cyclohex-1-enylphenyl)ureidomethyl]benzoylamino}-2-hydroxypropionic acid] | 354 | 2270
5 | O=C(NC[C@@H](O)C(=O)O)c1ccc(CN(C(=O)Nc2ccc(SC(F)(F)F)cc2)c2ccc(C3CCCCC3)cc2)cc1 [Example 24, (R)-3-{4-[1-(4-Cyclohexylphenyl)-3-(4-trifluoromethylsulfanylphenyl)ureidomethyl]benzoylamino}-2-hydroxypropionic acid] | 4.4 | 37
6 | CS(=O)(=O)c1cc(NC(=O)N(Cc2ccc(C(=O)NC[C@@H](O)C(=O)O)cc2)c2ccc(C3=CCCCC3)cc2)ccc1OC(F)(F)F [Example 25, (R)-3-{4-[1-(4-Cyclohexen-1-ylphenyl)-3-(3-methanesulfonyl-4-trifluoromethoxyphenyl)ureidomethyl]benzoylamino}-2-hydroxypropionic acid] | 10 | 465
7 | Cc1cc(C)cc(NC(=O)N(Cc2ccc(C(=O)NC[C@@H](O)C(=O)O)cc2)[C@H]2CC[C@H](C(C)(C)C)CC2)c1 [Example 26, Trans-(R)-3-{4-[-3-(3,5-bis(methyl)phenyl)-1-(4-tert-butylcyclohexyl)ureidomethyl]benzoylamino}-2-hydroxypropionic Acid] | 92 | 703
8 | O=C(NC[C@@H](O)C(=O)O)c1ccc(CN(C(=O)Nc2cc(Cl)cc(Cl)c2)c2ccc(C3CCCCC3)cc2)cc1 [Example 27, (R)-3-{4-[1-(4-Cyclohexylphenyl)-3-(3,5-dichlorophenyl)ureidomethyl]benzoylamino}-2-hydroxypropionic Acid] | 9.7 | 258
9 | CSc1cccc(NC(=O)N(Cc2ccc(C(=O)NC[C@@H](O)C(=O)O)cc2)c2ccc(C3CCCCC3)cc2)c1 [Example 29, (R)-3-{4-[1-(4-Cyclohexylphenyl)-3-(3-methylsulfanylphenyl)ureidomethyl]benzoylamino}-2-hydroxypropionic Acid] | 24 | 623
10 | O=C(NC[C@@H](O)C(=O)O)c1ccc(CN(C(=O)Nc2ccc3c(c2)C(F)(F)OC(F)(F)O3)c2ccc(C3=CCCCC3)cc2)cc1 [Example 30, (R)-3-{4-[1-(4-Cyclohex-1-enylphenyl)-3-(2,2,4,4-tetrafluoro-4H-benzo[1,3]dioxin-6-yl)ureido-methyl]benzoylamino}-2-hydroxypropionic Acid] | 13 | 217
11 | CO[C@H](CNC(=O)c1ccc(CN(C(=O)Nc2cc(Cl)cc(Cl)c2)c2ccc(C3=CCCCC3)cc2)cc1)C(=O)O [Example 31, 3-{4-[1-(4-Cyclohex-1-enylphenyl)-3-(3,5-dichlorophenyl)ureidomethyl]benzoylamino}-2(R)-methoxypropionic Acid] | 917 | ≥ 3000
